Reference: PubChem BioAssay AID1963864 (Molecular Pharmacology Branch, DTP, NCI, 2024)

Tested on: KRAS PDC multicell spheroid viability
Test: Anticancer human tumor 521955-158-R6-J3-PDC patient-derived pancreatic carcinoma cell line growth inhibition [KRAS2]
Settings: for IC50: curve of first compound; for viability, T/C: stronger effect = lower value
Summary of the method: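 KRAS-mutant tumor cells were grown as spheroids with HUVEC endothelial cells and human MSCs as stroma. Targeted agents were tested alone and with KRAS pathway inhibitors. Doses started at or near clinical Cmax, or 10 microM, descending half-log.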

[1] = second compound 0.1 µM, first compound 0.01 µM
[2] = second compound 0.1 µM, first compound 0.0316 µM
[3] = second compound 0.1 µM, first compound 0.1 µM
[4] = second compound 0.1 µM, first compound 0.316 µM
[5] = second compound 0.1 µM, first compound 1 µM
[6] = second compound 0.1 µM, first compound 3.16 µM
[7] = second compound 0.316 µM, first compound 0.01 µM
[8] = second compound 0.316 µM, first compound 0.0316 µM
[9] = second compound 0.316 µM, first compound 0.1 µM
[10] = second compound 0.316 µM, first compound 0.316 µM
[11] = second compound 0.316 µM, first compound 1 µM
[12] = second compound 0.316 µM, first compound 3.16 µM
[13] = second compound 1 µM, first compound 0.01 µM
[14] = second compound 1 µM, first compound 0.0316 µM
[15] = second compound 1 µM, first compound 0.1 µM
[16] = second compound 1 µM, first compound 0.316 µM
[17] = second compound 1 µM, first compound 1 µM
[18] = second compound 1 µM, first compound 3.16 µM
[19] = second compound 3.16 µM, first compound 0.01 µM
[20] = second compound 3.16 µM, first compound 0.0316 µM
[21] = second compound 3.16 µM, first compound 0.1 µM
[22] = second compound 3.16 µM, first compound 0.316 µM
[23] = second compound 3.16 µM, first compound 1 µM
[24] = second compound 3.16 µM, first compound 3.16 µM
[25] = second compound 10 µM, first compound 0.01 µM
[26] = second compound 10 µM, first compound 0.0316 µM
[27] = second compound 10 µM, first compound 0.1 µM
[28] = second compound 10 µM, first compound 0.316 µM
[29] = second compound 10 µM, first compound 1 µM
[30] = second compound 10 µM, first compound 3.16 µM
[31] = second compound 0.1 µM, first compound 10 µM
[32] = second compound 0.316 µM, first compound 10 µM
[33] = second compound 1 µM, first compound 10 µM
[34] = second compound 3.16 µM, first compound 10 µM
[35] = second compound 10 µM, first compound 10 µM
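Note: drug exposure lasted seven days.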
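Throughout, for viability, T/C: 100% = DMSO vehicle wells and lower means fewer viable cells.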

SMILES | IC50 (second compound 0.1 µM) [µM] | IC50 (second compound 0.316 µM) [µM] | IC50 (second compound 1 µM) [µM] | IC50 (second compound 3.16 µM) [µM] | IC50 (second compound 10 µM) [µM] | viability, T/C [2] [%] | viability, T/C [3] [%] | viability, T/C [4] [%] | viability, T/C [5] [%] | viability, T/C [6] [%] | viability, T/C [8] [%] | viability, T/C [9] [%] | viability, T/C [10] [%] | viability, T/C [11] [%] | viability, T/C [14] [%] | viability, T/C [15] [%] | viability, T/C [20] [%] | viability, T/C [21] [%] | viability, T/C [26] [%] | viability, T/C [27] [%] | also measured
CC1COCCN1c1cc(-c2ccnn2C)c2ccnc(-c3ccn[nH]3)c2n1 (stereo not given) + C=CC(=O)N1CCN(c2nc(=O)n(-c3c(C)ccnc3C(C)C)c3nc(-c4c(O)cccc4F)c(F)cc23)C(C)C1 | > 3.16 | > 3.16 | > 3.16 | > 3.16 | > 3.16 | 91 | 76.7 | 77.9 | 73 | 82.7 | 98.4 | 87.8 | 95.1 | 88 | 111 | 96 | 96.9 | 88.4 | 69.5 | 71 | viability, T/C [1]: 97.3%; viability, T/C [7]: 95%; viability, T/C [12]: 91.9%; viability, T/C [13]: 91.7%; viability, T/C [16]: 84.5%; viability, T/C [17]: 79.6%; viability, T/C [18]: 91.9%; viability, T/C [19]: 88.4%; viability, T/C [22]: 79.3%; viability, T/C [23]: 69.4%; viability, T/C [24]: 82.2%; viability, T/C [25]: 77.6%; viability, T/C [28]: 57.2%; viability, T/C [29]: 67.2%; viability, T/C [30]: 66.9%
O=C(c1cc(Cc2n[nH]c(=O)c3ccccc23)ccc1F)N1CCN(C(=O)C2CC2)CC1 + CNCc1ccccc1-c1csc(C(C)Nc2nc(C)nc3cc(OC)c(OC)cc23)c1 | > 10 | > 10 | > 10 | < 0.0316 | < 0.0316 | 72.8 | 79.4 | 75.4 | 71.6 | 66.7 | 65.6 | 65.3 | 64.6 | 62 | 61.3 | 68.7 | 1.32 | 3.56 | 0.13 | 0.47 | viability, T/C [31]: 71.9%; viability, T/C [12]: 56.5%; viability, T/C [32]: 66.5%; viability, T/C [16]: 62.8%; viability, T/C [17]: 55%; viability, T/C [18]: 64.3%; viability, T/C [33]: 62.9%; viability, T/C [22]: 0.56%; viability, T/C [23]: 0.32%; viability, T/C [24]: 3.02%; viability, T/C [34]: 0.56%; viability, T/C [28]: 1.37%; viability, T/C [29]: 0.65%; viability, T/C [30]: 0.77%; viability, T/C [35]: 0.19%
CC(C)n1nc(-c2ccc3oc(N)nc3c2)c2c(N)ncnc21 + CNCc1ccccc1-c1csc(C(C)Nc2nc(C)nc3cc(OC)c(OC)cc23)c1 | 0.0772 | 0.0413 | 0.0648 | < 0.000316 | < 0.000316 | 63.3 | 46.2 |  |  |  | 54.3 | 42.1 |  |  | 54.6 | 47.2 | 1.57 | 1.6 | 0.16 | 0.24 | viability, T/C (second compound 0.1 µM, first compound 0.000316 µM): 88.1%; viability, T/C (second compound 0.1 µM, first compound 0.001 µM): 89.9%; viability, T/C (second compound 0.1 µM, first compound 0.00316 µM): 81.2%; viability, T/C [1]: 71.2%; viability, T/C (second compound 0.316 µM, first compound 0.000316 µM): 82.3%; viability, T/C (second compound 0.316 µM, first compound 0.001 µM): 81.1%; viability, T/C (second compound 0.316 µM, first compound 0.00316 µM): 74.6%; viability, T/C [7]: 61.1%; viability, T/C (second compound 1 µM, first compound 0.000316 µM): 78.5%; viability, T/C (second compound 1 µM, first compound 0.001 µM): 73%; viability, T/C (second compound 1 µM, first compound 0.00316 µM): 73.6%; viability, T/C [13]: 64.2%; viability, T/C (second compound 3.16 µM, first compound 0.000316 µM): 1.65%; viability, T/C (second compound 3.16 µM, first compound 0.001 µM): 1.07%; viability, T/C (second compound 3.16 µM, first compound 0.00316 µM): 1.66%; viability, T/C [19]: 1.02%; viability, T/C (second compound 10 µM, first compound 0.000316 µM): 0.75%; viability, T/C (second compound 10 µM, first compound 0.001 µM): 0.17%; viability, T/C (second compound 10 µM, first compound 0.00316 µM): 0.16%; viability, T/C [25]: 0.15%
Cn1nccc1Nc1nccc(-c2cc3c(s2)C(C)(C)N(CCN2CCOCC2)C3=O)n1 + CC1OCC2(CCN(c3cnc(Sc4ccnc(N)c4Cl)c(N)n3)CC2)C1N | > 10 | > 10 | 7.94 | 2.83 | 1.51 | 89.8 | 93.9 | 94.2 | 81.2 | 68.4 | 93.9 | 95.5 | 90.3 | 67.4 | 88.4 | 98 | 82.1 | 88.4 | 93.2 | 86.6 | viability, T/C [31]: 62.6%; viability, T/C [12]: 63.7%; viability, T/C [32]: 57.1%; viability, T/C [16]: 82.2%; viability, T/C [17]: 72.2%; viability, T/C [18]: 53.7%; viability, T/C [33]: 49.2%; viability, T/C [22]: 72.7%; viability, T/C [23]: 59.9%; viability, T/C [24]: 47.8%; viability, T/C [34]: 47.7%; viability, T/C [28]: 71.9%; viability, T/C [29]: 53.6%; viability, T/C [30]: 43.4%; viability, T/C [35]: 39.5%
COc1cc2nccc(Oc3ccc(NC(=O)C4(C(=O)Nc5ccc(F)cc5)CC4)cc3)c2cc1OC + COc1cc2nc(C)nc(NC(C)c3cc(N)cc(C(F)(F)F)c3)c2cc1OC1CCOC1 | > 10 | > 10 | > 10 | > 10 | < 0.0316 | 89.3 | 91.9 | 78.7 | 91.3 | 101 | 93.3 | 97.2 | 90.1 | 90.9 | 79.8 | 84.4 | 70.5 | 73.9 | 49.1 | 11.8 | viability, T/C [31]: 90.2%; viability, T/C [12]: 97.5%; viability, T/C [32]: 95.2%; viability, T/C [16]: 83.5%; viability, T/C [17]: 88.1%; viability, T/C [18]: 103%; viability, T/C [33]: 78.7%; viability, T/C [22]: 70.8%; viability, T/C [23]: 72.8%; viability, T/C [24]: 89.5%; viability, T/C [34]: 53.6%; viability, T/C [28]: 18.1%; viability, T/C [29]: 27.6%; viability, T/C [30]: 2.28%; viability, T/C [35]: 1.88%
COC(=O)c1ccc2c(C(=Nc3ccc(N(C)C(=O)CN4CCN(C)CC4)cc3)c3ccccc3)c(O)[nH]c2c1 + CNCc1ccccc1-c1csc(C(C)Nc2nc(C)nc3cc(OC)c(OC)cc23)c1 | 3.03 | 1.84 | 3.28 | < 0.0316 | < 0.0316 | 91 | 105 | 120 | 134 | 47.5 | 83.7 | 93.3 | 107 | 120 | 84.1 | 90.1 | 2.05 | 1.85 | 0.42 | 1.27 | viability, T/C [31]: 0.53%; viability, T/C [12]: 5.04%; viability, T/C [32]: 0.18%; viability, T/C [16]: 110%; viability, T/C [17]: 110%; viability, T/C [18]: 51.7%; viability, T/C [33]: 1.19%; viability, T/C [22]: 2.08%; viability, T/C [23]: 1.25%; viability, T/C [24]: 0.14%; viability, T/C [34]: 1.34%; viability, T/C [28]: 0.48%; viability, T/C [29]: 0.14%; viability, T/C [30]: 2.49%; viability, T/C [35]: 0.86%
